Data as given in a compilation of properties of binary mixtures (doi:10.1016/j.jct.2017.12.009).

Assay: xn = mol fraction of the nth substance listed
Settings: 101 kPa

CO + CCCC[N+]1(C)CCCC1.O=S(=O)([O-])C(F)(F)F
x2 = 0
Settings	speed of sound [m/s]
278.15 K	1169
288.15 K	1135

CCCC[N+]1(C)CCCC1.O=S(=O)([O-])C(F)(F)F + CO
speed of sound [m/s]
Settings	278.15 K	288.15 K	298.15 K	308.15 K	318.15 K
x1 = 0.0501	1228	1198	1168	1138	1110
x1 = 0.1004	1274	–	–	1190	1163
x1 = 0.1503	1311	–	1257	1231	1205
x1 = 0.2002	–	1316	–	1264	1239
x1 = 0.3002	1389	1363	1338	1313	1289
x1 = 0.3996	1421	1396	1371	–	1324
x1 = 0.4998	1445	1420	1396	1372	1349
x1 = 0.6006	1463	1439	1415	–	1368
x1 = 0.7015	1478	1453	1429	1406	1383
x1 = 0.8013	1490	1465	–	1418	–
x1 = 0.8427	1495	1470	1446	1423	1400
x1 = 0.9008	1501	1476	1452	1429	1406
x1 = 0.9514	–	1480	1456	1433	1411
x1 = 1	1513	–	1461	1438	1415
